One data set relates to Aorta. Put plainly: Vasorelaxant activity in rat aortic ring assessed as inhibition of phenylephrine-induced contraction. In kind it is functional, tissue-based.
Data set [1] addresses T1, Protein kinase C epsilon type (Homo sapiens, UniProt Q02156).
T1 sequence (Q02156 whole entry): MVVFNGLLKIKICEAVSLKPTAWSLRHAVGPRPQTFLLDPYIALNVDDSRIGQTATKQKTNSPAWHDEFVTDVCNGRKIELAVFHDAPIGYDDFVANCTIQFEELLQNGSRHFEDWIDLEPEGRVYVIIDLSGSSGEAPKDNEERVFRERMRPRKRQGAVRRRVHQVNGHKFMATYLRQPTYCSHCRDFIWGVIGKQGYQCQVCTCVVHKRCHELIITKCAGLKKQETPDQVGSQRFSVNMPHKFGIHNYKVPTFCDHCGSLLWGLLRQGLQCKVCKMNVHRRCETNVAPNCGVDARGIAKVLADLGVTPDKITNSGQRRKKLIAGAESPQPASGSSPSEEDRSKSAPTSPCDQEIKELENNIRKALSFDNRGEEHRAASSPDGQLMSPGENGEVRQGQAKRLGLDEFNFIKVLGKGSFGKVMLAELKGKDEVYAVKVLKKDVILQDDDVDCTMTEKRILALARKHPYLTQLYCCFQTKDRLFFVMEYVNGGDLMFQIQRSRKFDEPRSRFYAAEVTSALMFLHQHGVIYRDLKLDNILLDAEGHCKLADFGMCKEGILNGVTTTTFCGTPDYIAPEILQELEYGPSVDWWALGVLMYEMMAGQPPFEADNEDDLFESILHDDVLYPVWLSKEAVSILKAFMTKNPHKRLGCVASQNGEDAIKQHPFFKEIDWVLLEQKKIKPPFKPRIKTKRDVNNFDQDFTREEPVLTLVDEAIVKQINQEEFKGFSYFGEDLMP
Put plainly: Inhibition of PRKCE.

The target of data set [2] is T2, cGMP-dependent protein kinase 2 (Homo sapiens, UniProt Q13237).
T2 sequence (Q13237 whole entry): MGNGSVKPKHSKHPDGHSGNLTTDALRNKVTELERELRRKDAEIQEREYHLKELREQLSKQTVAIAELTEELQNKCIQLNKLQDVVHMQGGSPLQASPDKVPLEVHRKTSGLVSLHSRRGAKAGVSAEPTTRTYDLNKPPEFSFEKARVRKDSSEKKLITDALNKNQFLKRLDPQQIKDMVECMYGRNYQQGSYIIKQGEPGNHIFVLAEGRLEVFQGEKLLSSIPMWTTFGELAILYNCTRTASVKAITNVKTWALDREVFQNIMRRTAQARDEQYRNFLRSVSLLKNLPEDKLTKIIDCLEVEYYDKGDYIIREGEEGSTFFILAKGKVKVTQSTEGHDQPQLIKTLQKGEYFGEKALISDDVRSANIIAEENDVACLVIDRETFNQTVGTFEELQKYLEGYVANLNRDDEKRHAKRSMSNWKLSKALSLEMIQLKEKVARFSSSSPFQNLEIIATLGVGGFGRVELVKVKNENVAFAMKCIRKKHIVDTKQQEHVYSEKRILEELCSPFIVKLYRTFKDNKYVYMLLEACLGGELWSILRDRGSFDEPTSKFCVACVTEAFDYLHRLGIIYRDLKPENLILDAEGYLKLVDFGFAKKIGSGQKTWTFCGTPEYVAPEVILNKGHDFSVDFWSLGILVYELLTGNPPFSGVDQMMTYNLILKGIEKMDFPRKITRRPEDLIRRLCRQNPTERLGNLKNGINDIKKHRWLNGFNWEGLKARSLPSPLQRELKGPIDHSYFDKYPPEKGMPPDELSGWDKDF
Description: Inhibition of PRKG2.

The target of data set [3] is Serine/threonine-protein kinase N2 (Homo sapiens, UniProt Q16513). Put plainly: Inhibition of PRKCL2.
Sequence of Serine/threonine-protein kinase N2 (Q16513 whole entry): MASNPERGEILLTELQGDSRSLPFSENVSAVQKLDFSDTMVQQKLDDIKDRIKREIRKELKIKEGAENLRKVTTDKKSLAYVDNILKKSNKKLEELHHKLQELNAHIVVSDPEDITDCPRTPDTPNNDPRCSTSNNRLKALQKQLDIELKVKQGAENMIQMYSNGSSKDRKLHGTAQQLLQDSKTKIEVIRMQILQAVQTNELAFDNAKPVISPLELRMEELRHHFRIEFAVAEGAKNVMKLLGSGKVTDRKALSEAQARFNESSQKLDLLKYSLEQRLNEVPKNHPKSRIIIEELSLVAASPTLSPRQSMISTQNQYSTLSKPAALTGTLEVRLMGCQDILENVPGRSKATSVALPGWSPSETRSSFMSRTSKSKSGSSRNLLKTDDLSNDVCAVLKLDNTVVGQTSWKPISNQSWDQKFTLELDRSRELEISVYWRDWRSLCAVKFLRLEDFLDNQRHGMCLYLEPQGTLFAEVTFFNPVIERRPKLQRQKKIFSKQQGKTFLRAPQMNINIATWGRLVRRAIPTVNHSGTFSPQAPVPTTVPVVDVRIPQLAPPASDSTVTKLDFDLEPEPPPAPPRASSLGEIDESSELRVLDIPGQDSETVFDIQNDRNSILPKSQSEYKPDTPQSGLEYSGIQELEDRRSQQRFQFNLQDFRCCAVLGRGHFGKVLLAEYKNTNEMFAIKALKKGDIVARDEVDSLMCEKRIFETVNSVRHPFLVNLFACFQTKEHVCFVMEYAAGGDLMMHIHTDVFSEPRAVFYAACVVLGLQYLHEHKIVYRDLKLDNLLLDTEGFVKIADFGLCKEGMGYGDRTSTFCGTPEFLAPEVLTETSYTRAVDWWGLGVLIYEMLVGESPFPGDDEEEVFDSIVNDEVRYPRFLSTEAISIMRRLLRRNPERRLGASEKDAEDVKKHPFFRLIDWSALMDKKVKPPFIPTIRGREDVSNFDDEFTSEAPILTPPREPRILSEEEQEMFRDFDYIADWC
Data set [4] addresses Rho-associated protein kinase 2 (Homo sapiens, UniProt O75116). Description: Inhibition of ROCK2 by luciferase based ATP detection assay.
A further data set is described as follows: in vitro. As to conditions: human.

pEC50, pIC50: −log10 of the molar value.

Sequence of Rho-associated protein kinase 2 (O75116 whole entry): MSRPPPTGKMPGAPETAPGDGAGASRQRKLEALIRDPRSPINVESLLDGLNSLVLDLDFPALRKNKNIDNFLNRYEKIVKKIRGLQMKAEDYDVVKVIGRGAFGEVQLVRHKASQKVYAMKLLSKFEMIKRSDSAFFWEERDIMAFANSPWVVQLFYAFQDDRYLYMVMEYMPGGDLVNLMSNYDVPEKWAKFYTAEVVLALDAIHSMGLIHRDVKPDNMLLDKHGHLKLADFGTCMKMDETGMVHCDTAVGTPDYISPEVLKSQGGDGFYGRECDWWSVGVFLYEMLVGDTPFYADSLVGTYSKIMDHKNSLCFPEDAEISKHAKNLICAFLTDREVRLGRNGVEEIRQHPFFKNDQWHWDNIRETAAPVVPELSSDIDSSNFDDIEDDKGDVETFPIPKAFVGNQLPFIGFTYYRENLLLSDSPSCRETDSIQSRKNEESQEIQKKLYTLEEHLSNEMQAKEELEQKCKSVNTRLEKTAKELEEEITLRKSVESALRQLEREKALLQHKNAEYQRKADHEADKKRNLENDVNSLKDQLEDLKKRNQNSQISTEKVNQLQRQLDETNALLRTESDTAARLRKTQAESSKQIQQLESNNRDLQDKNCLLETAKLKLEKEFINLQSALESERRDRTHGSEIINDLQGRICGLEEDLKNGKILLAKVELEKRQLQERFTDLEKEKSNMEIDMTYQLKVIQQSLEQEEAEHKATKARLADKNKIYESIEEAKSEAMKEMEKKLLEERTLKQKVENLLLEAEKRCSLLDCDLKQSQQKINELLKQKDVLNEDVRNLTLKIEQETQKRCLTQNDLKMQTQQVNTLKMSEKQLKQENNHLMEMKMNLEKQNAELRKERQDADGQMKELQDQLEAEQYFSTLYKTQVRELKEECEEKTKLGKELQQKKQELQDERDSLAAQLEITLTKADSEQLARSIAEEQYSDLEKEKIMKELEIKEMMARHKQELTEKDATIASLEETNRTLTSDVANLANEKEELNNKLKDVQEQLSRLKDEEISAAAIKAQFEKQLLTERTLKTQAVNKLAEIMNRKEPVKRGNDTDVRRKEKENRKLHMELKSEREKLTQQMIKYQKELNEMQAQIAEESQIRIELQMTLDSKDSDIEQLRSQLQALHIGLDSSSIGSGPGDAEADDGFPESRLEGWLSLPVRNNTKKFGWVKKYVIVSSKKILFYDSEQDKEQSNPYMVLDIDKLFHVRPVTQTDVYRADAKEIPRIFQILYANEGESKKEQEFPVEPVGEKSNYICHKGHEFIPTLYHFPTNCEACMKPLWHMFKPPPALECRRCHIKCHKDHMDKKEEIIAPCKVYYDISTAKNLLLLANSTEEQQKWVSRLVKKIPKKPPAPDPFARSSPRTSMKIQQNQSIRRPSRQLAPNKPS

The term pEC50 denotes the EC50 on a negative log10 scale, so that one unit is a factor of ten. As for `O=C(Nc1cc2cc[nH]c(=O)c2cc1Cl)[C@H]1CNC[C@@H]1c1ccc(Cl)cc1`, the pEC50 in the data set on Aorta was 7.40.

Usually pIC50 stands for −log10 of the IC50, conventionally taken in molar units. Low readings indicate a large IC50, high ones a small IC50. For the compound `O=C(Nc1cc2cc[nH]c(=O)c2cc1Cl)[C@@H]1CNC[C@H]1c1ccc(Cl)cc1`, the negative logarithm of the EC50 (pEC50) in the data set with Aorta was 7.64. Further, the pIC50 in data set [1] was 6.00; in data set [2], 7.62; in data set [3], 7.85; in data set [4] it was 8.40.

In turn, `NC(C(=O)Nc1cc2cc[nH]c(=O)c2cc1Cl)c1cccc(Cl)c1` (centres undefined) gave a pIC50 in data set [4] of 7.82.

`O=C(Nc1cc2cc[nH]c(=O)c2cc1Cl)C1(c2ccccc2)CCNC1` (centres undefined) had a negative-log IC50 (pIC50) in data set [4] of 6.62.

By half-life is commonly meant the time in which the quantity being followed falls by half. On to `CNC(C(=O)Nc1cc2cc[nH]c(=O)c2cc1Cl)c1ccccc1` (centres undefined), for which the pEC50 in the data set with Aorta was 6.77. Moreover, in “in vitro” (microsomes), the half-life worked out at 15 min.

With `O=C(Nc1cc2cc[nH]c(=O)c2cc1Cl)[C@@H]1CCCNC1`, in the data set on Aorta, the pEC50 is 6.26. In addition, the half-life in the data set “in vitro” (liver microsomes) was found to be 71 min. In data set [4], this compound showed a pIC50 of 7.33.

For the compound `O=C(Nc1cc2cc[nH]c(=O)c2cc1Cl)C1(c2ccccc2)CCNCC1`, the negative logarithm of the IC50 (pIC50) in data set [4] was 6.64.

Consider `O=C(Nc1cc2cc[nH]c(=O)c2cc1Cl)C1CNCC1c1ccc(Cl)cc1` (racemic), for which the pEC50 in the data set with Aorta was 7.22. Besides, in the data set “in vitro” (liver microsomes), the half-life was above 300 min. Moreover, the pIC50 in data set [4] is 8.22.

Take `O=C(Nc1cc2cc[nH]c(=O)c2cc1Cl)C1CNCC1c1cccc(C(F)(F)F)c1` (racemic): in data set [4], the pIC50 is 8.40.

In the case of `O=C(Nc1cc2cc[nH]c(=O)c2cc1Cl)C1CNCC1c1cccc(Br)c1` (racemic), the pEC50 with Aorta is 7.20. The half-life in the data set “in vitro” (liver microsomes) was 43 min. In addition, in data set [4], the pIC50 was 8.70.

Take `COc1cccc(C2CNCC2C(=O)Nc2cc3cc[nH]c(=O)c3cc2Cl)c1` (racemic): in the data set with Aorta, the pEC50 is 7.06. This compound had a pIC50 in data set [4] of 8.40.

Consider `Cc1cccc(C2CNCC2C(=O)Nc2cc3cc[nH]c(=O)c3cc2Cl)c1` (racemic), for which the negative-log IC50 (pIC50) in data set [4] is 8.30.

In data set [4], `O=C(Nc1cc2cc[nH]c(=O)c2cc1Cl)C1CNCC1c1ccc(Cl)cc1Cl` (racemic) gave a negative-log IC50 (pIC50) of 8.10.

With `O=C(Nc1cc2cc[nH]c(=O)c2cc1Cl)C1CNCC1c1ccccn1` (racemic), the pEC50 in the data set on Aorta is 6.68. Further, the half-life in “in vitro” (liver microsomes) was 58 min. In data set [4], this compound had a negative-log IC50 (pIC50) of 7.85.

Turning to `CCc1cccc(C2CNCC2C(=O)Nc2cc3cc[nH]c(=O)c3cc2Cl)c1` (racemic), in data set [4], the negative-log IC50 (pIC50) was 8.40.

For `O=C(Nc1cc2cc[nH]c(=O)c2cc1Cl)C1CNCC1c1cccnc1` (racemic), in the data set with Aorta, the pEC50 was 6.82. This compound also gave a half-life in “in vitro” (microsomes) of 49 min. In data set [4], this compound gave a pIC50 of 8.10.

For `O=C(Nc1cc2cc[nH]c(=O)c2cc1Cl)C1CNCC1c1ccncc1` (racemic), the negative-log EC50 (pEC50) in the data set on Aorta was 7.18. The compound further showed a negative logarithm of the IC50 (pIC50) in data set [4] of 7.59.

For `O=C(Nc1cc2cc[nH]c(=O)c2cc1Cl)C1CNCC1c1ccc(F)cc1` (racemic), the pEC50 in the data set with Aorta was 6.80. Also, in “in vitro” (liver microsomes), the half-life was found to be 61 min. Moreover, in data set [4], the pIC50 is 8.05.

For the compound `O=C(Nc1cc2cc[nH]c(=O)c2cc1Cl)C1CNCCC1c1ccccc1` (racemic), the negative-log EC50 (pEC50) in the data set on Aorta was 7.26. Besides, in the data set “in vitro” (liver microsomes), the half-life is 37 min. Moreover, the pIC50 in data set [4] was 8.22.

As to `CC(C)(C)c1cccc(C2CNCC2C(=O)Nc2cc3cc[nH]c(=O)c3cc2Cl)c1` (racemic), in data set [4], the pIC50 was 7.96.

With `O=C(Nc1cc2cc[nH]c(=O)c2cc1Cl)C1CNCC1c1ccccc1` (racemic), the negative logarithm of the EC50 (pEC50) with Aorta was 7.05. The same compound showed a half-life in the data set “in vitro” (liver microsomes) of 130 min. Also, the pIC50 in data set [4] is 8.22.

As for `O=C(Nc1cc2cc[nH]c(=O)c2cc1Cl)C1CNCC1c1ccc(Br)cc1` (racemic), in the data set on Aorta, the negative logarithm of the EC50 (pEC50) is 6.85. Further, the half-life in “in vitro” (microsomes) stood at 238 min. The compound also showed a negative-log IC50 (pIC50) in data set [4] of 8.40.

Compound `O=C(Nc1cc2cc[nH]c(=O)c2cc1Cl)C1CNCC1c1cccc(OC(F)(F)F)c1` (racemic) showed a pIC50 in data set [4] of 8.15.

Take `CC(C)c1cccc(C2CNCC2C(=O)Nc2cc3cc[nH]c(=O)c3cc2Cl)c1` (racemic): the pIC50 in data set [4] is 8.22.

The values above are taken from ChEMBL document CHEMBL1155533, “Substituted 2H-isoquinolin-1-ones as potent Rho-kinase inhibitors: part 3, aryl substituted pyrrolidines” (Bioorg Med Chem Lett, 2010).
